Source: patent EP0101588A1, “Compositions comprising amino and diamino acid derivatives and use thereof as plant growth stimulants” (S.I.P.C.A.M. S.p.A. Società Italiana Prodotti Chimici e per …, priority 1982, dated 1984)
Counter-ions that a name gives are not always drawn.

Legend:
Assay type in all cases: in vivo
Italy grapevines = test: Vineyard trial, applications mixed with fungicides; conditions: 1 g/100 m^2, 2 weekly applications before and 6 after flowering, mixed with fungicide mixtures; untreated control 234
San Marzano tomatoes = test: Field trial on tomatoes, spraying before and after flowering; conditions: 3 g/100 m^2 per treatment, 2 treatments before flowering and 3 weekly after flowering; untreated control 321
[1] = tested on: thiosemicarbazide-treated rabbits with epileptic type syndromes; test: Intramuscular injection in rabbits with epileptic type syndromes; conditions: 1 ml of 10% aqueous solution, as long as the level of the compound remains adequate
Procedure: Prepare an aqueous solution containing 10% pure N-carboxymethyl-gamma-aminobutyric acid disodium salt and autoclave for 2 h at 115°C.
Inject very slowly by intramuscular route 1 ml of the solution thus prepared in thiosemicarbazide-treated rabbits with epileptic type syndromes.

Radish = test: Greenhouse radish crop, spraying after emergence; conditions: 0.01 g/m^2 per treatment, two treatments at an interval of 4 days; for Radish crop roots only: untreated control 165; for Radish crop whole plants: untreated control 198
spinach = test: Field trial on spinach, 4 weekly treatments; conditions: 2 g/100 m^2 per treatment, untreated control 8.3
lettuce = test: Field trial on lettuce, 4 weekly treatments; conditions: 2 g/100 m^2 per treatment, untreated control 18.0

## O=C([O-])CCCNCC(=O)[O-].[Na+].[Na+] [N-carboxymethyl gamma-amino-butyric acid disodium salt]
Italy grapevines
  Grape harvest: 351 kg/100 m^2
San Marzano tomatoes
  Fruit harvest: 569 kg/100 m^2
[1]
  convulsions: convulsions disappear
Radish
  Radish crop roots only: 280 g/m^2
  Radish crop whole plants: 350 g/m^2
spinach
  Harvest Spinach: 12.6 kg/100 m^2
lettuce
  Harvest Lettuce: 26.5 kg/100 m^2

## NCCCCNCC(=O)[O-].[Na+] [N-carboxymethyl-1,4-diamino-butane sodium salt]
Italy grapevines
  Grape harvest: 345 kg/100 m^2
San Marzano tomatoes
  Fruit harvest: 574 kg/100 m^2
Radish
  Radish crop roots only: 272 g/m^2
  Radish crop whole plants: 335 g/m^2
spinach
  Harvest Spinach: 11.8 kg/100 m^2
lettuce
  Harvest Lettuce: 23.5 kg/100 m^2

## CC(NCCCC(=O)O)C(=O)O (stereo not shown) [N-methylcarboxymethyl-gamma-aminobutyric acid disodium salt]
Italy grapevines
  Grape harvest: 320 kg/100 m^2
San Marzano tomatoes
  Fruit harvest: 513 kg/100 m^2
Radish
  Radish crop roots only: 262 g/m^2
  Radish crop whole plants: 321 g/m^2
spinach
  Harvest Spinach: 11.5 kg/100 m^2
lettuce
  Harvest Lettuce: 24.3 kg/100 m^2
